Results from paper PMC3328272, “HIV-1 Nef interaction influences the ATP-binding site of the Src-family kinase, Hck” (BMC Chemical Biology, 2012).

Experiments:
[1] = tested on: T1, mHck-HART; assay: Z'-Lyte in vitro kinase assay, mHck-HART alone; assay type: biochemical, mouse; details: read-out: Km, ATP
T1 construct: the N-terminal unique domain was replaced with a hexahistidine tag; hexahistidine (N); made in house; host or cells: Sf9 insect cells (baculovirus)
Method: (§1) Protein-tyrosine kinase assays were performed using the FRET-based Z'-Lyte kinase assay kit and Tyr-2 peptide substrate according to the manufacturer's instructions (Life Technologies) and our previous work. All assays were performed in quadruplicate in low-volume, non-binding 384-well plates (Corning). […] The Km for ATP was then calculated from a plot of ATP concentration against initial reaction velocity followed by non-linear regression analysis (GraphPad Prism). […] Development reagent was then added to the reaction for an additional 1 h at room temperature, followed by addition of the stop reagent. Fluorescence was assessed at an excitation wavelength of 400 nm; coumarin fluorescence and the fluorescein FRET signal were monitored at 445 and 520 nm, respectively. Reactions run in the absence of ATP served as the 0% phosphorylation control, whereas a stoichiometrically phosphorylated Tyr2 peptide was used as the 100% phosphorylation control. Raw fluorescence values were corrected for background, and reaction endpoints calculated as emission ratios of coumarin fluorescence divided by the fluorescein FRET signal. These ratios were normalized to the ratio obtained with the 100% phosphorylation control peptide. IC50 values were calculated using a sigmoidal curve fit using GraphPad Prism. […]

[2] = molecular target: T2, mHck-TA (Mus musculus, UniProt P08103, Q521E/Q522E/Q523I/T331A); assay: Z'-Lyte in vitro kinase assay, mHck-TA alone; assay type: biochemical; details: read-out: Km, ATP
T2 construct: the N-terminal unique domain was replaced with a hexahistidine tag; hexahistidine (N); made in house; host or cells: Sf9 insect cells (baculovirus)
Method: as §1

[3] = molecular target: T3, mHck-TA-HART + Nef-SF2 (Mus musculus, UniProt P08103, A89S/E88T/E93W/H91F/I90P/Q521E/Q522E/Q523I/R92P/T331A); assay type: biochemical
T3 construct: the N-terminal unique domain was replaced with a hexahistidine tag; hexahistidine (N); made in house; host or cells: Hck: Sf9 insect cells; Nef: E. coli
Method: Protein-tyrosine kinase assays were performed using the FRET-based Z'-Lyte kinase assay kit and Tyr-2 peptide substrate according to the manufacturer's instructions (Life Technologies) and our previous work. All assays were performed in quadruplicate in low-volume, non-binding 384-well plates (Corning). […] The Km for ATP was then calculated from a plot of ATP concentration against initial reaction velocity followed by non-linear regression analysis (GraphPad Prism). […] Development reagent was then added to the reaction for an additional 1 h at room temperature, followed by addition of the stop reagent. Fluorescence was assessed at an excitation wavelength of 400 nm; coumarin fluorescence and the fluorescein FRET signal were monitored at 445 and 520 nm, respectively. Reactions run in the absence of ATP served as the 0% phosphorylation control, whereas a stoichiometrically phosphorylated Tyr2 peptide was used as the 100% phosphorylation control. Raw fluorescence values were corrected for background, and reaction endpoints calculated as emission ratios of coumarin fluorescence divided by the fluorescein FRET signal. These ratios were normalized to the ratio obtained with the 100% phosphorylation control peptide. IC50 values were calculated using a sigmoidal curve fit using GraphPad Prism. Additional details of the Z'-Lyte assay principle and calculation of percent inhibition has been described elsewhere.

[4] = molecular target: mHck-TA-HART + Nef-Consensus (Mus musculus, UniProt P08103, A89S/E88T/E93W/H91F/I90P/Q521E/Q522E/Q523I/R92P/T331A); assay: Z'-Lyte in vitro kinase assay, mHck-TA-HART + Nef-Consensus; assay type: biochemical
Method: as §1

[5] = molecular target: T4, mHck-TA + Nef-SF2 (Mus musculus, UniProt P08103, Q521E/Q522E/Q523I/T331A); assay: Z'-Lyte in vitro kinase assay, mHck-TA + Nef-SF2; assay type: biochemical; details: mHck-TA + Nef-SF2, Nef at 10-fold molar excess; read-out: Km, ATP
T4 construct: the N-terminal unique domain was replaced with a hexahistidine tag; hexahistidine (N); made in house; host or cells: Hck: Sf9 insect cells; Nef: E. coli
Method: as §1

[6] = molecular target: T5, mHck + Nef-SF2 (Mus musculus, UniProt P08103, Q521E/Q522E/Q523I); assay: Z'-Lyte in vitro kinase assay, mHck + Nef-SF2; assay type: biochemical; details: mHck + Nef-SF2, Nef at 10-fold molar excess; read-out: Km, ATP
T5 construct: the N-terminal unique domain was replaced with a hexahistidine tag; hexahistidine (N); made in house; host or cells: Hck: Sf9 insect cells; Nef: E. coli
Method: as §1

[7] = molecular target: T6, mHck (Mus musculus, UniProt P08103, Q521E/Q522E/Q523I); assay: Z'-Lyte in vitro kinase assay, mHck alone; assay type: biochemical; details: read-out: Km, ATP
T6 construct: the N-terminal unique domain was replaced with a hexahistidine tag; hexahistidine (N); made in house; host or cells: Sf9 insect cells (baculovirus)
Method: as §1

[8] = tested on: T7, mHck-HART + Nef-SF2; assay: Z'-Lyte in vitro kinase assay, mHck-HART + Nef-SF2; assay type: biochemical, mouse; details: mHck-HART + Nef-SF2, Nef at 10-fold molar excess; read-out: Km, ATP
T7 construct: the N-terminal unique domain was replaced with a hexahistidine tag; hexahistidine (N); made in house; host or cells: Hck: Sf9 insect cells; Nef: E. coli
Method: as §1

[9] = molecular target: T8, mHck-TA-HART (Mus musculus, UniProt P08103, A89S/E88T/E93W/H91F/I90P/Q521E/Q522E/Q523I/R92P/T331A); assay: Z'-Lyte in vitro kinase assay, mHck-TA-HART alone; assay type: biochemical; details: read-out: Km, ATP
T8 construct: the N-terminal unique domain was replaced with a hexahistidine tag; hexahistidine (N); made in house; host or cells: Sf9 insect cells (baculovirus)
Method: as §1

[10] = molecular target: T9, mHck-TA + Nef-Consensus (Mus musculus, UniProt P08103, Q521E/Q522E/Q523I/T331A); assay: Z'-Lyte in vitro kinase assay, mHck-TA + Nef-Consensus; assay type: biochemical; details: Nef at 10-fold molar excess, read-out: Km, ATP
T9 construct: the N-terminal unique domain was replaced with a hexahistidine tag; hexahistidine (N); made in house; host or cells: Hck: Sf9 insect cells; Nef: E. coli
Method: as §1

[11] = molecular target: T2, mHck-TA; assay: Nef-induced kinase activation over kinase:Nef ratios (Z'-Lyte); assay type: biochemical
Method: as §1, with “Reactions run in the absence of ATP served as the 0% phosphorylation control, whereas a stoichiometrically phosphorylated Tyr2 peptide was used as the 100% phosphorylation control.” left out, “These ratios were normalized to the ratio obtained with the 100% phosphorylation control peptide.” left out
(§2) To determine the impact of the SH3-HART modification in the context of near full-length Hck, we next introduced the HART coding sequence into mHck-TA. […] This observation fits with the smaller enhancement in SH3-HART binding to Nef-Consensus as determined by SPR. […]

[12] = molecular target: T8, mHck-TA-HART; assay: as above; assay type: biochemical
Method: as §1, with “Reactions run in the absence of ATP served as the 0% phosphorylation control, whereas a stoichiometrically phosphorylated Tyr2 peptide was used as the 100% phosphorylation control.” left out, “These ratios were normalized to the ratio obtained with the 100% phosphorylation control peptide.” left out
as §2

[13] = molecular target: T10, Human Hck SH3 (Homo sapiens, UniProt P08631); assay: Surface plasmon resonance (SPR), Nef binding to immobilized SH3 domain; details: 1:1 Langmuir model
T10 construct: made in house; host or cells: E. coli BL21(DE3)pLysS
Method: (§3) Recombinant Hck SH3 domain proteins were exchanged into HBS-EP buffer (10 mM HEPES, pH 7.4, 150 mM NaCl, 3 mM EDTA, 0.05% v/v P20 surfactant) and concentrated with an Amicon Ultra 15 ml 3 kDa molecular weight cutoff spin concentrator. Primary untagged Nef proteins were exchanged into HBS-EPD buffer (10 mM HEPES, pH 7.4, 150 mM NaCl, 3 mM EDTA, 0.05% v/v P20 surfactant, 1 mM DTT) and concentrated with an Amicon Ultra 15 ml 10 kDa molecular weight cutoff spin concentrator. SPR analysis was performed on a BIAcore 3000 instrument (GE Healthcare) using a four-channel CM5 biosensor chip with the Hck SH3 domains covalently attached as ligand via standard amine coupling chemistry. […] The initial binding reaction was followed by dissociation for 5 min, and the chip surface was regenerated using HBS-EPD buffer at a flow rate of 30 μl/min for 10 min. Binding curves recorded at each analyte concentration were assessed in triplicate, corrected for buffer effects, and fit to a 1:1 Langmuir binding model using the BIAevaluation 4.1 software suite (GE Healthcare).

[14] = molecular target: T11, Mouse Hck HART (Mus musculus, UniProt P08103, A89S/E88T/E93W/H91F/I90P/R92P); assay: as above
T11 construct: made in house; host or cells: E. coli BL21(DE3)pLysS
Method: as §3

[15] = molecular target: T12, Mouse Hck SH3 (Mus musculus, UniProt P08103); assay: as above; details: 1:1 Langmuir model
T12 construct: made in house; host or cells: E. coli BL21(DE3)pLysS
Method: as §3

[16] = molecular target: similarly modified Hck SH3 domain; details: ITC; read-out: interaction (KD) with a similarly modified Hck SH3 domain via ITC; cited from earlier work
[17] = mHck-TA-HART with Nef-SF2 vs alone
[18] = HART vs wild-type mouse SH3 domain
[19] = Mouse Hck HART SH3 immobilized, 1:1 Langmuir model

T3 sequence (P08103 whole entry E88T/A89S/I90P/H91F/R92P/E93W/T331A/Q521E/Q522E/Q523I, looked up, the tested form may be a part): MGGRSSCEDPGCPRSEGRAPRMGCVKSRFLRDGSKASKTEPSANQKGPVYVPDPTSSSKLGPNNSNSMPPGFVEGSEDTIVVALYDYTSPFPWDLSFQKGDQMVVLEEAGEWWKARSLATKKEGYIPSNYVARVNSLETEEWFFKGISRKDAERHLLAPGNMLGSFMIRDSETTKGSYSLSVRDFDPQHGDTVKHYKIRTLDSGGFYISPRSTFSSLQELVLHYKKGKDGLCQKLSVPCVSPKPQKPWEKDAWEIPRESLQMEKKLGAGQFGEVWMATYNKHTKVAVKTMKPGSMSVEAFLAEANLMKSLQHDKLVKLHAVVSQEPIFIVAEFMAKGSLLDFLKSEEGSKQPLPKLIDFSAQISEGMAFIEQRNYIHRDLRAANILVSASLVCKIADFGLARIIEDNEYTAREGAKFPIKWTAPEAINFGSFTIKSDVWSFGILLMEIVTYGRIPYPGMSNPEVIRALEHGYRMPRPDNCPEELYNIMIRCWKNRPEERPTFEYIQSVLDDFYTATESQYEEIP
T12 sequence (P08103 76-136 limits assumed): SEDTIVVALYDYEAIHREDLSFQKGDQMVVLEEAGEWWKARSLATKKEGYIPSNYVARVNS
T11 sequence (P08103 76-136 E88T/A89S/I90P/H91F/R92P/E93W limits assumed): as the sequence (P08103 76-136 limits assumed) above, with E13T, A14S, I15P, H16F, R17P, E18W counted along it
T10 sequence (P08631 78-138 limits assumed): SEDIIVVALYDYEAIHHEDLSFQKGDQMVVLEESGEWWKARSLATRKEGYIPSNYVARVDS
T2 sequence (P08103 76-524 T331A/Q521E/Q522E/Q523I limits assumed): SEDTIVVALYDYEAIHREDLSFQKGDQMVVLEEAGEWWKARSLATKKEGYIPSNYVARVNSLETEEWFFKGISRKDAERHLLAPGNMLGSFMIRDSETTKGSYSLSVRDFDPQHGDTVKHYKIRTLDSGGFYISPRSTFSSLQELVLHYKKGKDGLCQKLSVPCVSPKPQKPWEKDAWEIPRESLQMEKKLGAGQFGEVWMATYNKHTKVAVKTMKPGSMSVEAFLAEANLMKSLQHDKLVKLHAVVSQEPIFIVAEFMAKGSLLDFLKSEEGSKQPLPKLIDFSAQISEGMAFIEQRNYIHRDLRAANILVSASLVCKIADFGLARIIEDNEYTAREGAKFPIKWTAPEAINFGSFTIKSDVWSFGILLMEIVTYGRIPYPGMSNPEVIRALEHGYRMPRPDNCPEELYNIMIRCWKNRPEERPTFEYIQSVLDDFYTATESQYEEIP
Chain of mHck-TA-HART + Nef-Consensus (P08103 76-524 E88T/A89S/I90P/H91F/R92P/E93W/T331A/Q521E/Q522E/Q523I): as the sequence (P08103 76-524 T331A/Q521E/Q522E/Q523I limits assumed) above, with E13T, A14S, I15P, H16F, R17P, E18W counted along it
T8 sequence (P08103 76-524 E88T/A89S/I90P/H91F/R92P/E93W/T331A/Q521E/Q522E/Q523I): as the sequence (P08103 76-524 T331A/Q521E/Q522E/Q523I limits assumed) above, with E13T, A14S, I15P, H16F, R17P, E18W counted along it
T9 sequence (P08103 76-524 T331A/Q521E/Q522E/Q523I limits assumed): as the sequence (P08103 76-524 T331A/Q521E/Q522E/Q523I limits assumed) above
T4 sequence (P08103 76-524 T331A/Q521E/Q522E/Q523I limits assumed): as above
T5 sequence (P08103 76-524 Q521E/Q522E/Q523I): as the sequence (P08103 76-524 T331A/Q521E/Q522E/Q523I limits assumed) above, with A256T counted along it
T6 sequence (P08103 76-524 Q521E/Q522E/Q523I): as the sequence (P08103 76-524 T331A/Q521E/Q522E/Q523I limits assumed) above, with A256T counted along it

Compound: Nc1ncnc2c1ncn2[C@@H]1O[C@H](COP(=O)(O)OP(=O)(O)OP(=O)(O)O)[C@@H](O)[C@H]1O [ATP]
- Km [1]: 105 ± 29 µM
- Km [2]: 62 ± 12.6 µM
- Km ([3]; mHck-TA-HART + Nef-SF2, Nef at 10-fold molar excess, read-out: Km, ATP): 69 ± 17.6 µM
- reduction of the Km for ATP in the presence of Nef [3, 17]: ~ 2.5 fold
- Km ([4]; mHck-TA-HART + Nef-Consensus, Nef at 10-fold molar excess, read-out: Km, ATP): 76 ± 23.1 µM
- reduction of the Km for ATP in the presence of Nef ([4]; mHck-TA-HART with Nef-Consensus vs alone): ~ 2.5 fold
- Km [5]: 68 ± 10.7 µM
- Km [6]: 14.8 ± 1.4 µM
- Km [7]: 12.1 ± 2 µM
- Km [8]: 49.3 ± 5.8 µM
- Km [9]: 181 ± 28.7 µM
- Km [10]: 84 ± 3.5 µM

Compound: CC(C)(C)n1nc(-c2cccc3ccccc23)c2c(N)ncnc21 [NaPP1, reference compound]
- increase in sensitivity to inhibition by NaPP1 in the presence of Nef [3, 17]: more than three-fold

Compound: Nef-SF2: recombinant HIV-1 Nef protein, B-clade allele SF2, expressed in E. coli
- excess of Nef required for full activation [11]: 5 fold
- kinase:Nef ratio at maximal activation [12]: 1 to 1
- Kd [13]: 70 ± 10 nM
- ka [13]: 1.60 ± 0.06 M^-1s^-1 × 10^5
- kd [13]: 1.18 ± 0.04 s^-1 × 10^-2
- enhancement of affinity by introduction of the HART sequence [14, 18]: 13 fold
- increase in the association rate constant with SH3-HART [14, 18]: 2.5 fold
- change in the dissociation rate constant with SH3-HART ([14]; HART vs wild-type mouse SH3 domain, decrease for Nef-SF2, essentially unchanged for Nef-Consensus): ~5 fold
- Kd [14, 19]: 10 nM
- ka [14, 19]: 14.20 ± 1.40 M^-1s^-1 × 10^5
- kd [14, 19]: 1.43 ± 0.01 s^-1 × 10^-2
- Kd [15]: 130 ± 30 nM
- ka [15]: 5.54 ± 1.77 M^-1s^-1 × 10^5
- kd [15]: 7.00 ± 0.36 s^-1 × 10^-2
- Kd [16]: 12 nM
